Target: c-Myc template DNA (c-myc quadruplex)
Test: Quadruplex binding / stop assay (Taq polymerase arrest, capillary electrophoresis)
Conditions: read-out: S DATA; Table 1D, stop assay data

IC50 [µM] | Compound
> 15 | NC1CCN(c2c(F)cc3c(=O)c(C(=O)NCC4CC4)cn4c3c2Oc2cc3ccccc3cc2-4)C1 (stereo not shown) [compound 1700]
> 15 | CC1CCCN(CCCNC(=O)c2cn3c4c(c(N5CCC(N)C5)c(F)cc4c2=O)Oc2cc4ccccc4cc2-3)C1 (stereo not shown) [compound 1712]
1.75 | CN1CCCC1CCNC(=O)c1cn2c3c(c(/N=C4\CCCCN4)c(F)cc3c1=O)Oc1cc3ccccc3cc1-2 (stereo not shown) [compound 1482]
1.5 | O=C(NCCN1CCCC1)c1cn2c3c(c(N4CCC(c5cnccn5)C4)ccc3c1=O)Oc1cc3ccccc3cc1-2 (stereo not shown) [compound 1723]
> 15 | C[C@H](O)CNC(=O)c1cn2c3c(c(N4CCC(N)C4)c(F)cc3c1=O)Oc1cc3ccccc3cc1-2 (stereo partly shown) [compound 1709]
2.25 | CN1CCCC1CCNC(=O)c1cn2c3c(c(F)c(F)cc3c1=O)Oc1cc3ccccc3cc1-2 (stereo not shown) [compound 1738]
8.2 | CC(C)N1CCN(c2c(F)cc3c(=O)c(C(=O)NCCN4CCCC4)cn4c3c2Oc2cccnc2-4)CC1 [compound 1801]
> 15 | COc1ccccc1CCNC(=O)c1cn2c3c(c(N4CCC(N)C4)c(F)cc3c1=O)Oc1cc3ccccc3cc1-2 (stereo not shown) [compound 1711]
1.12 | O=C(NCCN1CCCC1)c1cn2c3c(c(N4CCC(c5cnccn5)C4)c(F)cc3c1=O)Oc1cc3ccccc3cc1-2 (stereo not shown) [compound 1664]
10 | CN1CCN(c2c(F)cc3c(=O)c(C(=O)NCCN4CCCC4)cn4c3c2Oc2cc(Cl)ccc2-4)CC1 [compound 1817]
1.75 | CCOC(=O)N1CCC(Nc2c(F)cc3c(=O)c(C(=O)NCCC4CCCN4C)cn4c3c2Oc2cc3ccccc3cc2-4)CC1 (stereo not shown) [compound 1485]
0.75 | CN1CCC(NC(=O)c2cn3c4c(c(N5CCC(N)C5)c(F)cc4c2=O)Oc2cc4ccccc4cc2-3)CC1 (stereo not shown) [compound 1717]
1 | N=C(N)NCCCNC(=O)c1cn2c3c(c(NCCN4CCCC4)c(F)cc3c1=O)Oc1cc3ccccc3cc1-2 [compound 1654]
> 15 | O=C(NCCN1CCCC1)c1cn2c3c(c(SCCc4cnccn4)c(F)cc3c1=O)Oc1cc(Cl)ccc1-2 [compound 1784]
> 15 | CN1CCCC1CCNC(=O)c1cn2c3c(c(NC(CO)CC4CCCCC4)c(F)cc3c1=O)Oc1cc3ccccc3cc1-2 (stereo not shown) [compound 1748]

The next lines start with the compound.

Compound | IC50 [µM]
CN(C)CCCCNC(=O)c1cn2c3c(c(NCCCCN(C)C)ccc3c1=O)Oc1cc3ccccc3cc1-2 [compound 1544] | 1.75
CC1(C)CC(NC(=O)c2cn3c4c(c(N5CCC(NC(=O)OC(C)(C)C)C5)c(F)cc4c2=O)Oc2ccccc2-3)CC(C)(C)N1 (stereo not shown) [compound 1591] | > 15
CN1CCCC1CCNC(=O)c1cn2c3c(c(NC4CCOC(C)(C)C4)c(F)cc3c1=O)Oc1cc3ccccc3cc1-2 (stereo not shown) [compound 1751] | > 15
CCN(CC)CCCC(C)NC(=O)c1cn2c3c(c(N4CC5CCCNC5C4)ccc3c1=O)Oc1ccccc1-2 (stereo not shown) [compound 1730] | > 15
CN1CCCC1CCNC(=O)c1cn2c3c(c(NCCc4c[nH]c5ccccc45)c(F)cc3c1=O)Oc1cc3ccccc3cc1-2 (stereo not shown) [compound 1666] | 1.75
COc1cccc(CCNc2c(F)cc3c(=O)c(C(=O)NCCC4CCCN4C)cn4c3c2Oc2cc3ccccc3cc2-4)c1 (stereo not shown) [compound 1669] | 1.75
CCc1ccc(CCNc2c(F)cc3c(=O)c(C(=O)NCCC4CCCN4C)cn4c3c2Oc2cc3ccccc3cc2-4)cc1OC (stereo not shown) [compound 1679] | 0.69
CN(C)CCCCNC(=O)c1cn2c3c(c(N4CCC(NC(=O)OC(C)(C)C)C4)ccc3c1=O)Oc1cc3ccccc3cc1-2 (stereo not shown) [compound 1539] | 0.75
COc1ccccc1CCNc1c(F)cc2c(=O)c(C(=O)NCCC3CCCN3C)cn3c2c1Oc1cc2ccccc2cc1-3 (stereo not shown) [compound 1684] | > 15

Same assay, conditions: read-out: Stop Data c-Myc μM; concentration at which 50% of the DNA was arrested (arrested:full-length 1:1)

IC50 [µM] | Compound
1.75 | CN1CCCC1CCNC(=O)c1cn2c3c(c(N4CCC(NC(=O)OC(C)(C)C)C4)c(F)cc3c1=O)Oc1cc3ccccc3cc1-2 (stereo not shown) [compound 213]
2.5 | O=C(NCCN1CCCC1)c1cn2c3c(c(NCCN4CCOCC4)c(F)cc3c1=O)Oc1cc3ccccc3cc1-2 [compound 58]
1 | CN(C)CCCCNc1c(F)cc2c(=O)c(C(=O)NCCN3CCCC3)cn3c2c1Oc1cc2ccccc2cc1-3 [compound 318]
1 | CC(C)(C)OC(=O)NC1CCN(c2c(F)cc3c(=O)c(C(=O)NCCCCN4CCCC4)cn4c3c2Oc2cc3ccccc3cc2-4)C1 (stereo not shown) [compound 323]
1.75 | CN1CCCC1CCNC(=O)c1cn2c3c(c(/N=C4\CCCCN4)c(F)cc3c1=O)Oc1cc3ccccc3cc1-2 (stereo not shown) [compound 253]
2.5 | O=C(NCCN1CCOCC1)c1cn2c3c(c(NCCN4CCOCC4)c(F)cc3c1=O)Oc1cc3ccccc3cc1-2 [compound 54]
2.5 | CN1CCN(CCCNC(=O)c2cn3c4cc5c(=O)c6ccccc6c(=O)c5cc4oc4c(N5CCC(N)C5)c(F)cc(c2=O)c43)CC1 (stereo not shown) [compound 91]
0.75 | CN1CCCC1CCNC(=O)c1cn2c3c(c(N4CCC(c5cccnc5)C4)c(F)cc3c1=O)Oc1cc3ccccc3cc1-2 (stereo not shown) [compound 443]
1.75 | CN(C)CCCNC(=O)c1cn2c3c(c(N4CCC(N)C4)c(F)cc3c1=O)Oc1cc3ccccc3cc1-2 (stereo not shown) [compound 246]
1.75 | CN1CCC(N(C)C(=O)c2cn3c4c(c(N5CCC(N)C5)c(F)cc4c2=O)Oc2cc4ccccc4cc2-3)CC1 (stereo not shown) [compound 198]
1.75 | CN1CCCC1CCNC(=O)c1cn2c3c(c(N4CC[C@@H](NC(=O)OC(C)(C)C)C4)c(F)cc3c1=O)Oc1cc3ccccc3cc1-2 (stereo partly shown) [compound 120]
0.75 | CN1CCCC1CCNCC(=O)N[C@@H]1CCN(c2c(F)cc3c(=O)c(C(=O)N4CCCCC4)cn4c3c2Oc2cc3c(cc2-4)oc2ccccc23)C1 (stereo partly shown) [compound 413]
1.75 | O=C(NCCN1CCCC1)c1cn2c3c(c(F)c(F)cc3c1=O)Oc1cc3c(cc1-2)oc1ccccc13 [compound 113]
2.5 | O=C(c1cn2c3c(c(NCCN4CCCC4)c(F)cc3c1=O)Oc1cc3ccccc3cc1-2)N1CCOCC1 [compound 43]
0.89 | CN1CCC[C@H]1CCNC(=O)c1cn2c3c(c(N4CCC(c5cnccn5)C4)c(F)cc3c1=O)Oc1cc3ccccc3cc1-2 (stereo partly shown) [compound 355]
1.75 | CCOC(=O)N1CCC(Nc2c(F)cc3c(=O)c(C(=O)NCCC4CCCN4C)cn4c3c2Oc2cc3ccccc3cc2-4)CC1 (stereo not shown) [compound 256]

Further lines, the compound ahead of its results:

Compound | IC50 [µM]
CN(C)CCCCNc1c(F)cc2c(=O)c(C(=O)O)cn3c4cc5oc6cc([N+](=O)[O-])ccc6[nH]c5cc4oc1c23 [compound 19] | 0.75
CN(C)CCCCNc1c(F)cc2c(=O)c(C(=O)NCCCN3CCOCC3)cn3c2c1Oc1cc2c(cc1-3)oc1ccccc12 [compound 162] | 1.75
CN(C)CCCCNc1c(F)cc2c(=O)c(C(=O)Nc3ccc(N(C)C)cc3)cn3c2c1Oc1c-3ccc2ccccc12 [compound 76] | 2.5
O=C(NCCCN1CCOCC1)c1cn2c3cc4oc5cc([N+](=O)[O-])ccc5[nH]c4cc3oc3c(NCCN4CCCC4)c(F)cc(c1=O)c32 [compound 552] | 0.375
Nc1c(F)c(NCCCN2CCOCC2)c2c3c1c(=O)c(C(=O)O)cn3-c1cc3ccccc3cc1O2 [compound 14] | 1.75
CN1CCCC1CCNc1c(F)cc2c(=O)c(C(N)=O)cn3c2c1Oc1cc2ccccc2cc1-3 (stereo not shown) [compound 298] | 1.75
O=C(c1cn2c3c(c(NC4CCNC4)c(F)cc3c1=O)Oc1cc3ccccc3cc1-2)N1CCOCC1 (stereo not shown) [compound 116] | 1.75
CC(C)(C)OC(=O)N[C@@H]1CCN(C(=O)c2cn3c4c(c(N5CC[C@@H](NC(=O)OC(C)(C)C)C5)c(F)cc4c2=O)Oc2cc4ccccc4cc2-3)C1 [compound 65] | 2.5
CN1CCCC1CCNc1c(F)cc2c(=O)c(-c3nc4ccccc4s3)cn3c2c1Oc1cc2ccccc2cc1-3 (stereo not shown) [compound 114] | 1.75
O=C(O)c1cn2c3c(c(N4CC5CCCNC5C4)c(F)cc3c1=O)Oc1cc3ccccc3cc1-2 (stereo not shown) [compound 23] | 0.75
CN(C)CCCCNC(=O)c1cn2c3cc4c(cc3oc3c(NCCC5CCCN5C)c(F)cc(c1=O)c32)c(=O)c1ccccc14 (stereo not shown) [compound 423] | 0.75
COc1ccc(CCNc2c(F)cc3c(=O)c(C(=O)NCCC4CCCN4C)cn4c3c2Oc2cc3ccccc3cc2-4)cc1 (stereo not shown) [compound 286] | 1.75
CN(C)CCCCNc1c(F)cc2c(=O)c(C(=O)NCCCN3CCOCC3)cn3c4cc5oc6cc([N+](=O)[O-])ccc6[nH]c5cc4oc1c23 [compound 556] | 0.375
CC(C)(C)OC(=O)N[C@H]1CCN(c2c(F)cc3c(=O)c(C(=O)NCCN4CCCC4)cn4c5cc6c(cc5oc2c34)c(=O)c2ccccc26)C1 [compound 202] | 1.75
CC(C)(C)OC(=O)NC1CCN(c2c(F)c(N)c3c(=O)c(C(=O)N4CCOCC4)cn4c3c2Oc2cc3ccccc3cc2-4)C1 (stereo not shown) [compound 230] | 1.75
CN1CCCC1CCNC(=O)c1cn2c3cc4c(=O)c5ccccc5c(=O)c4cc3oc3c(NCCCN4CCOCC4)c(F)cc(c1=O)c32 (stereo not shown) [compound 348] | 0.9
CN(C)CCCCNc1c(F)cc2c(=O)c(C(=O)NCCCn3ccnc3)cn3c2c1Oc1c-3ccc2ccccc12 [compound 142] | 1.75
N[C@@H]1CCN(C(=O)c2cn3c4c(c(NCCCN5CCOCC5)c(F)cc4c2=O)Oc2c-3ccc3ccccc23)C1 [compound 83] | 2.5
CC(C)(C)OC(=O)NC1CCN(C(=O)c2cn3c4c(c(N5CCC(NC(=O)OC(C)(C)C)C5)c(F)c(N)c4c2=O)Oc2cc4ccccc4cc2-3)C1 (stereo not shown) [compound 227] | 1.75
NC1CCN(C(=O)c2cn3c4cc5c(=O)c6ccccc6c(=O)c5cc4oc4c(N5CCC(N)C5)c(F)cc(c2=O)c43)C1 (stereo not shown) [compound 499] | 0.4
CN(C)CCCCNc1ccc2c(=O)c(C(=O)NC3CC(C)(C)NC(C)(C)C3)cn3c2c1Oc1cc2ccccc2cc1-3 [compound 276] | 1.75
CN(C)/C=N/CCCNC(=O)c1cn2c3c(c(N4CC[C@@H](NC(=O)OC(C)(C)C)C4)c(F)cc3c1=O)Oc1cc3ccccc3cc1-2 [compound 211] | 1.75
CN(C)CCCCNC(=O)c1cn2c3c(c(NCCCN4CCOCC4)c(F)cc3c1=O)Oc1c-2ccc2ccccc12 [compound 129] | 1.75
CN1CCCC1CCNc1c(F)cc2c(=O)c(C(=O)NCCCn3ccnc3)cn3c2c1Oc1c-3ccc2ccccc12 (stereo not shown) [compound 135] | 1.75

— US7507727B2, “Substituted quinobenzoxazine analogs and methods of using thereof” (Cylene Pharmaceuticals, Inc., priority 2003, dated 2009)
